Assay results taken from US20240254118A1, “PRMT5 INHIBITORS AND USES THEREOF” (Gilead Sciences, Inc., priority 2022, published 2024).
pEC50: −log10 of the molar value.

Key:
[1] = test system: SDMA signal (PRMT5 inhibition) in HCT116 MTAP-deleted cells; assay: Symmetric di-methyl arginine image-based high content screen assay (SDMA assay), HCT116 MTAP-deleted; assay type: cell-based; conditions: SDMA assay; for pEC50: Homo sapiens, HCT-116, 72 h, 3 days of treatment, cell line not given, taken as HCT116 MTAP-deleted, read-out: EC50 (SDMA assay); for EC50 selectivity (SDMA assay): taken as HCT116 WT versus MTAP-deleted
Procedure, shortened: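 Read-out: per-cell mean SDMA immunofluorescence (Alexa Fluor 488 secondary), cells segmented by DAPI on a high-content imager. Compound exposure in HCT116 MTAP-deleted cells lasted until fixation on Day 3; overnight 4° C primary anti-SDMA antibody staining.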

[2] = test system: HCT116 MTAP-deleted cells; assay: Cell viability assay (CellTiter-Glo, 7 days), HCT116 MTAP-deleted; conditions: Homo sapiens, HCT-116, 168 h

| SMILES | pEC50 [1] | EC50 selectivity (SDMA assay) [1] | CC50 [2] [nM] |
| --- | --- | --- | --- |
| Cn1ncc2c(N)nc3cc(F)c(C(=O)N(Cc4ccc(C(F)(F)F)cn4)n4ccc5cccnc54)cc3c21 [Example 296, 4-amino-7-fluoro-1-methyl-N-(1H-pyrrolo[2,3-b]pyridin-1-yl)-N-((5-(trifluoromethyl)pyridin-2-yl)methyl)-1H-pyrazolo[4,3-c]quinoline-8-carboxamide] | > 9.00 | 27 | < 100 |
| Cn1ncc2c(N)nc3ccc(C(=O)N(Cc4ccc(C(F)(F)F)cn4)N4C[C@@H]5C[C@H]4CO5)cc3c21 [Example 297, 4-amino-N-((1S,4S)-2-oxa-5-azabicyclo[2.2.1]heptan-5-yl)-1-methyl-N-((5-(trifluoromethyl)pyridin-2-yl)methyl)-1H-pyrazolo[4,3-c]quinoline-8-carboxamide] | 8.30 to 9.00 | 151 | 100 to 1000 |
| Cn1ncc2c(N)nc3cc(F)c(C(=O)N(Cc4ccc(C(F)(F)F)cn4)N4C[C@@H]5C[C@H]4CO5)cc3c21 [Example 298, 4-amino-N-((1S,4S)-2-oxa-5-azabicyclo[2.2.1]heptan-5-yl)-7-fluoro-1-methyl-N-((5-(trifluoromethyl)pyridin-2-yl)methyl)-1H-pyrazolo[4,3-c]quinoline-8-carboxamide] | > 9.00 | 23 | < 100 |
| Cn1ncc2c(N)nc3ccc(C(=O)N(Cc4ccc(C(F)(F)F)cn4)N4C[C@H]5C[C@@H]4CO5)cc3c21 [Example 299, 4-amino-N-((1R,4R)-2-oxa-5-azabicyclo[2.2.1]heptan-5-yl)-1-methyl-N-((5-(trifluoromethyl)pyridin-2-yl)methyl)-1H-pyrazolo[4,3-c]quinoline-8-carboxamide] | > 9.00 | 144 | < 100 |
| Cn1ncc2c(N)nc3cc(F)c(C(=O)N(Cc4ccc(C(F)(F)F)cn4)N4C[C@H]5C[C@@H]4CO5)cc3c21 [Example 300, 4-amino-N-((1R,4R)-2-oxa-5-azabicyclo[2.2.1]heptan-5-yl)-7-fluoro-1-methyl-N-((5-(trifluoromethyl)pyridin-2-yl)methyl)-1H-pyrazolo[4,3-c]quinoline-8-carboxamide] | > 9.00 | 24 | < 100 |
| CC(=O)N(C)N(Cc1cccc2c1OC(F)(F)O2)C(=O)c1cc2c(cc1F)nc(N)c1cnn(C)c12 [Example 301, N′-acetyl-4-amino-N-((2,2-difluorobenzo[d][1,3]dioxol-4-yl)methyl)-7-fluoro-N′,1-dimethyl-1H-pyrazolo[4,3-c]quinoline-8-carbohydrazide] | > 9.00 | 106 | < 100 |
| CN(C(=O)C1CC1)N(Cc1cccc2c1OC(F)(F)O2)C(=O)c1ccc2nc(N)c3cnn(C)c3c2c1 [Example 302, 4-amino-N′-(cyclopropanecarbonyl)-N-((2,2-difluorobenzo[d][1,3]dioxol-4-yl)methyl)-N′,1-dimethyl-1H-pyrazolo[4,3-c]quinoline-8-carbohydrazide] | 8.30 to 9.00 | 248 | < 100 |

The next lines start with results.

| pEC50 [1] | EC50 selectivity (SDMA assay) [1] | SMILES | CC50 [2] [nM] |
| --- | --- | --- | --- |
| > 9.00 | 58 | CN(C(=O)C1CC1)N(Cc1cccc2c1OC(F)(F)O2)C(=O)c1cc2c(cc1F)nc(N)c1cnn(C)c12 [Example 303, 4-amino-N′-(cyclopropanecarbonyl)-N-((2,2-difluorobenzo[d][1,3]dioxol-4-yl)methyl)-7-fluoro-N′,1-dimethyl-1H-pyrazolo[4,3-c]quinoline-8-carbohydrazide] | < 100 |
| 8.30 to 9.00 | 15 | CN(C(=O)C1CC1)N(Cc1ccc(C(F)(F)F)cn1)C(=O)c1cc2c(cc1Cl)nc(N)c1cnn(C)c12 [Example 304, 4-amino-7-chloro-N′-(cyclopropanecarbonyl)-N′,1-dimethyl-N-((5-(trifluoromethyl)pyridin-2-yl)methyl)-1H-pyrazolo[4,3-c]quinoline-8-carbohydrazide] | < 100 |
| > 9.00 | 75 | [2H]C1([2H])C([2H])([2H])C1([2H])C(=O)N(C)N(Cc1ccc(C(F)(F)F)cn1)C(=O)c1ccc2nc(N)c3cnn(C)c3c2c1 [Example 305, 4-amino-N′-(cyclopropane-1-carbonyl-d5)-N′,1-dimethyl-N-((5-(trifluoromethyl)pyridin-2-yl)methyl)-1H-pyrazolo[4,3-c]quinoline-8-carbohydrazide] | < 100 |
| > 9.00 | 359 | CC(=O)N(C)N(Cc1cccc2c1OC(F)(F)O2)C(=O)c1ccc2nc(N)c3cnn(C)c3c2c1 [Example 307, N′-acetyl-4-amino-N-((2,2-difluorobenzo[d][1,3]dioxol-4-yl)methyl)-N′,1-dimethyl-1H-pyrazolo[4,3-c]quinoline-8-carbohydrazide] | < 100 |
| > 9.00 | 122 | Cn1ncc2c(N)nc3ccc(C(=O)N(Cc4ccc(C(F)(F)F)cn4)NC(=O)C4(F)CC4)cc3c21 [Example 308, 4-amino-N′-(1-fluorocyclopropane-1-carbonyl)-1-methyl-N-((5-(trifluoromethyl)pyridin-2-yl)methyl)-1H-pyrazolo[4,3-c]quinoline-8-carbohydrazide] | < 100 |
| 8.30 to 9.00 | 52 | Cn1ncc2c(N)nc3cc(F)c(C(=O)N(Cc4ccc(C(F)(F)F)cn4)N4C[C@H]5CC[C@@H](C4)O5)cc3c21 [Example 309, 4-amino-N-((1R,5S)-8-oxa-3-azabicyclo[3.2.1]octan-3-yl)-7-fluoro-1-methyl-N-((5-(trifluoromethyl)pyridin-2-yl)methyl)-1H-pyrazolo[4,3-c]quinoline-8-carboxamide] | < 100 |
| > 9.00 | 132 | C[C@@H]1CN(N(Cc2ccc(C(F)(F)F)cn2)C(=O)c2ccc3nc(N)c4cnn(C)c4c3c2)C[C@H](C)O1 [Example 310, 4-amino-N-((2S,6R)-2,6-dimethylmorpholino)-1-methyl-N-((5-(trifluoromethyl)pyridin-2-yl)methyl)-1H-pyrazolo[4,3-c]quinoline-8-carboxamide] | < 100 |
| 8.30 to 9.00 | 58 | CN(C(=O)C1CC1)N(Cc1cc(F)c(-c2cnn(C(F)(F)F)c2)cc1F)C(=O)c1ccc2nc(N)c3cnn(C)c3c2c1 [Example 311, 4-amino-N′-(cyclopropanecarbonyl)-N-(2,5-difluoro-4-(1-(trifluoromethyl)-1H-pyrazol-4-yl)benzyl)-N′,1-dimethyl-1H-pyrazolo[4,3-c]quinoline-8-carbohydrazide] | < 100 |
| > 9.00 | 160 | Cc1cc(CN(C(=O)c2ccc3nc(N)c4cnn(C)c4c3c2)N(C)C(=O)C2CC2)c(F)cc1-c1cnn(C(F)(F)F)c1 [Example 315, 4-amino-N′-(cyclopropanecarbonyl)-N-(2-fluoro-5-methyl-4-(1-(trifluoromethyl)-1H-pyrazol-4-yl)benzyl)-N′,1-dimethyl-1H-pyrazolo[4,3-c]quinoline-8-carbohydrazide] | < 100 |
